{"source": "BindingDB's records for doi:10.1016/j.ejmech.2018.09.067", "about": "(University of Louvain, 2018)", "key": {"[1]": {"assay": "Inhibition of human thrombin using Z-GPR-AMC as substrate after 30 mins by fluorimetric analysis"}, "[2]": {"assay": "Inhibition of human recombinant C-terminal His-tagged PHGDH (1 to 533 residues) expressed in Escherichia coli using 3-phosphoglycerate as substrate"}, "[3]": {"assay": "Inhibition of human recombinant full-length LDHA using sodium pyruvate as substrate after 60 mins by resazurin dye-based assay"}, "[4]": {"assay": "Inhibition of human recombinant ACE using Abz-FRK(Dnp)-P-OH as substrate after 30 mins by fluorimetric analysis"}, "[5]": {"assay": "Displacement of [3H]CP 55940 from human recombinant CB1 receptor after 120 mins by scintillation counting analysis"}, "[6]": {"assay": "Inhibition of human carbonic anhydrase 2 using 4-nitrophenyl acetate as substrate after 20 mins by spectrophotometric analysis"}, "[7]": {"assay": "Inhibition of human recombinant PDE3A using [3H]cAMP after 20 mins by scintillation counting analysis"}, "[8]": {"assay": "Displacement of [3H]muscimol from recombinant human GABAalpha1beta2gamma2 measured after 120 mins by scintillation counting method"}, "[9]": {"assay": "Displacement of [125I]pirenzepine from human recombinant M1 receptor after 60 mins by scintillation counting analysis"}, "[10]": {"assay": "Inhibition of human IDO using L-tryptophan as substrate after 30 mins by Ehrlich's reagent based assay"}, "[11]": {"assay": "Inhibition of human recombinant COX1 using arachidonic acid as substrate after 3 mins by fluorimetric analysis"}, "[12]": {"assay": "Displacement of [3H]8-OH-DPAT from recombinant human 5-HT1A receptor after 60 mins by scintillation counting analysis"}, "[13]": {"assay": "Inhibition of human recombinant Lck using Ulight-Poly GAT[EAY(1:1:1)]n as substrate after 10 mins by LANCE analysis"}, "[14]": {"assay": "Displacement of [3H]WY 14643 from human recombinant PPARalpha receptor at 10 uM after 120 mins by scintillation counting analysis relative to control"}, "[15]": {"assay": "Inhibition of human recombinant acetylcholinesterase using acetylthiocholine as substrate after 30 mins by spectrophotometric analysis"}, "[16]": {"assay": "Inhibition of human recombinant Arg1 using L-arginine as substrate after 5 mins in presence of [guanidino-14C]-L-arginine by liquid scintillation counting analysis"}, "[17]": {"assay": "Inhibition of human MAOA using kynuramine as substrate after 20 mins by spectrophotometric analysis"}}, "data": [{"smiles": "O=C(NNC(=S)Nc1ccc(Cl)c(Cl)c1)c1ccccc1O", "values": [{"measurement": "IC50", "setting": "[1]", "result": 0.103, "unit": "nM"}, {"measurement": "IC50", "setting": "[2]", "result": 8.7, "unit": "µM"}, {"measurement": "IC50", "setting": "Inhibition of human MAGL", "result": 363, "unit": "nM"}, {"measurement": "IC50", "setting": "[3]", "result": 577, "unit": "µM"}, {"measurement": "IC50", "setting": "[4]", "result": 0.7, "unit": "nM"}, {"measurement": "IC50", "setting": "[5]", "result": 0.58, "unit": "nM"}, {"measurement": "IC50", "setting": "[6]", "result": 29, "unit": "nM"}, {"measurement": "IC50", "setting": "[7]", "result": 490, "unit": "nM"}, {"measurement": "IC50", "setting": "[8]", "result": 75, "unit": "nM"}, {"measurement": "IC50", "setting": "[9]", "result": 22, "unit": "nM"}, {"measurement": "IC50", "setting": "[10]", "result": 37, "unit": "µM"}, {"measurement": "IC50", "setting": "[11]", "result": 8, "unit": "nM"}, {"measurement": "IC50", "setting": "[12]", "result": 0.6, "unit": "nM"}, {"measurement": "IC50", "setting": "[13]", "result": 31, "unit": "nM"}, {"measurement": "IC50", "setting": "[14]", "result": 52, "unit": "nM"}, {"measurement": "IC50", "setting": "[15]", "result": 520, "unit": "nM"}, {"measurement": "IC50", "setting": "[16]", "result": 13, "unit": "µM"}, {"measurement": "IC50", "setting": "[17]", "result": 40, "unit": "nM"}]}]}
